Laboratory results reported in patent US20030211075A1 (priority 2001, published 2003).
Where a chain is given by its changes, count along the chain named. Names and notes keep the numbering of the source.

Key:
HUVEC cells = test: FACS analysis of tissue factor expression on endothelial cells; assay type: cell-based, human; conditions: TNFα 500 U/ml, LPS 10 μg/ml, VEGF 1 nM, 6 h
Procedure: To analyze tissue factor expression on the surface of endothelial cells, HUVEC cells were incubated with TNFα (500 U/ml), LPS (10 μg/ml) or vascular endothelial growth factor (VEGF, 1 nM) alone or in combination for 6 h at 37°. Cells were then detached and stained for surface expression of human tissue factor with a sheep-anti-human tissue factor antibody (Haemochrom. Essen. Germany) and an appropriate FITC-conjugated secondary antibody. Fluorescent cells were detected on a flow cytometer (Becton Dickinson, San Jose, Calif.).

[1] = in vivo; cited from earlier work
[2] = Toxicity to mice of agents given separately; conditions: mouse, in vivo
[3] = tested on: HT29 human colorectal carcinoma; test: HT29 xenograft, tumor growth and necrosis after tTF constructs and Factor VIIa; assay type: in vivo, mouse; conditions: mouse, in vivo, iv
[4] = cited from earlier work
[5] = tested on: Mouse bEnd.3 endothelial cells; test: PS translocation and viability of endothelial cells exposed to H2O2; assay type: cell-based
Procedure: Mouse bEnd.3 endothelial cells were seeded at an initial density of 50,000 cells/well. Twenty-fours later cells were incubated with increasing concentrations of H2O2 (from 10 μM to 500 μM) for 1 hour at 37° C, or left untreated. At the end of the incubation, cells were washed 3 times with PBS containing 0.2% gelatin and fixed with 0.25% glutaraldehyde. Identical wells were either stained with anti-PS IgM or trypsinized and evaluated for viability by the Trypan Blue exclusion test. For the anti-PS staining, after blocking with 2% gelatin for 10 min., cells were incubated with 2 μg/ml of anti-PS antibody, followed by detection with anti-mouse IgM-HRP conjugate.

[6] = progressive disease before treatment; cited from earlier work
Mouse endothelial cells = test: Cell based two stage coagulation assay after TNFα
Procedure: (§1) Mouse endothelial cells were seeded in 48 well tissue culture plates and allowed to adhere overnight. Cells were stimulated with TNFα at the following concentrations: 500 U/ml; 100 U/ml; 20 U/ml; 4 U/ml; 0.8 U/ml; 0.16 U/ml; and with medium only.
Endothelial cells were also tested for coagulant activity in a cell based two stage coagulation assay. After incubation with TNFα, cells were washed and incubated with coagulation factor mix (0.5 μg/ml factor VIIa in a mix containing 2.8 μg/ml factor IX, 3.4 μg/ml factor X, 50 μM phospholipids, in calcium buffer). The supernatant of wells was transferred into a 96 well ELISA plate. Substrate S2765 was added and Factor Xa generation measured.

VCAM-1 = test: FACS for upregulation of VCAM-1 on endothelial cells; assay type: cell-based, mouse
Procedure: as §1
Endothelial cells were then investigated for upregulation of the adhesion molecule VCAM-1 by fluorescence activated cell stain (FACS). To this end, cells were stained with an antibody against murine VCAM-1, followed by an appropriate FITC-conjugated secondary antibody. Fluorescent cells were detected on a flow cytometer (Becton Dickinson, San Jose, Calif.).

human endoglin (human) = human endoglin (human) (UniProt P17813); test: in vivo localization, human/SCID animal with human skin graft containing a tumor, overnight
[7] = tested on: L540 human Hodgkin's disease tumors; test: L540 tumors, immunoglobulin-tTF conjugate with etoposide; conditions: mouse, in vivo
Procedure: The tumor test systems were: i) L540 human Hodgkin's disease tumors growing in SCID mice; ii) C1300 Muγ (interferon-secreting) neuroblastoma growing in nu/nu mice; iii) H460 human non-small cell lung carcinoma growing in nu/nu mice. To establish solid tumors, 1.5×10^7 tumor cells were injected subcutaneously into the right anterior flank of SCID or BALB/c nu/nu mice (Charles River Labs., Wilmingham, Mass.). When the tumors had grown to various diameters, mice were assigned to different experimental groups, each containing 4 to 9 mice.
Mice bearing L540 human Hodgkin's disease tumors were treated with a complex of tTF219 and a bispecific antibody together with the anti-cancer drug, etoposide, at a conventional dose.

[8] = tested on: L540 Hodgkin-bearing SCID mice; test: Annexin V inhibition of coaguligand-induced thrombosis in vivo; parameters: species or system mouse
Procedure: The ability of Annexin V to inhibit coaguligand-induced thrombosis in vivo was examined in L540 Hodgkin-bearing SCID mice.
Four hours after the last injection mice were anesthetized and perfused with heparinized saline. Tumors were removed, fixed with 4% formalin, paraffin-embedded and stained with hematoxylene-eosin. The number of thrombosed and non-thrombosed blood vessels were counted and the percentage of thrombosis was calculated.

[9] = tested on: IL-1α-stimulated bEnd.3 cells; test: Chromogenic assay of Factor Xa formation induced by cell-bound coaguligand; assay type: cell-based, mouse; conditions: 10 μg per ml Annexin V
Procedure: The ability of Annexin V to affect Factor Xa formation induced by coaguligand was determined by a chromogenic assay. […] Annexin V was added at concentrations ranging from 0.1 to 10 μg/ml and cells were incubated for 30 min, before addition of diluted Proplex T. The amount of Factor Xa generated in the presence or absence of Annexin V was determined. Each treatment was performed in duplicate and repeated at least twice.

[10] = target: T1, recombinant human VEGF (VEGF165) (human, UniProt P15692-4 27-191); test: competition ELISA, 1 nM VEGF on VEGFR1 (Flt-1/Fc) wells, 1000 fold molar excess of 2C3
T1 construct: Dimeric VEGF seen at about 42 kd on blots; also called huVEGF; free VEGF

[11] = target: T1, recombinant human VEGF (VEGF165); test: competition ELISA, 1 nM VEGF on VEGFR1 (Flt-1/Fc) wells, 100 fold molar excess of 2C3

T1 sequence (P15692 other isoform, or with tags, fused parts or gaps limits assumed): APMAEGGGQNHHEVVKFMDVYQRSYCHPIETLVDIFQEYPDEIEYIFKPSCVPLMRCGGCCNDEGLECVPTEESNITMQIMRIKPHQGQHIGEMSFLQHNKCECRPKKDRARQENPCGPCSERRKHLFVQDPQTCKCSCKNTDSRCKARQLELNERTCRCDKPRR
human endoglin (human), sequence (P17813 26-658): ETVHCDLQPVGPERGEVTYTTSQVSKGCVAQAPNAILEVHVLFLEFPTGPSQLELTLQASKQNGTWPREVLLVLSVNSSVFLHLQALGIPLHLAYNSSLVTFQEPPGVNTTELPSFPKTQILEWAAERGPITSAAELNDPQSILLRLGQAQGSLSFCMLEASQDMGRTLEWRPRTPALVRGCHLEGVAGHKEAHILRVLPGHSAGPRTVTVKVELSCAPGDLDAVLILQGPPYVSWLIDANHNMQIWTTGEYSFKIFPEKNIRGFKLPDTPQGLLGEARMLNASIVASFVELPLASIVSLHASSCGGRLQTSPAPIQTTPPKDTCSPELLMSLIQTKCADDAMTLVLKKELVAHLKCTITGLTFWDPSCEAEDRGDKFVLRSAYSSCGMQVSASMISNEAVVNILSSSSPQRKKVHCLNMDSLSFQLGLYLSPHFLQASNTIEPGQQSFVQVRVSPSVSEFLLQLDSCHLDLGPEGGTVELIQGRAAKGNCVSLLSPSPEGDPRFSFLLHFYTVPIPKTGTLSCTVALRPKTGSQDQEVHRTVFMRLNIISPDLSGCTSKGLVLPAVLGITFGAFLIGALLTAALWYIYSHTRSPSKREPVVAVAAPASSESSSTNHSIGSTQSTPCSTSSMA

Q: With VEGF as the molecule, how does the “tissue factor expression on the surface of HUVEC” value (HUVEC cells) read?
A: The value was “upregulated tissue factor expression”.

Q: With monophosphoryl lipid A [MPL] as the molecule, how does the “dose known to be safe for human use” value [1] read?
A: Its value is 100 μg/m^2.

Q: Which “toxicity when given separately” value [2] does the source give for “Factor VIIa: activated coagulation Factor VII, recombinant human” here?
A: Its value is “practically non-toxic to mice”.

Q: And the “average area of necrosis in tumor sections” value [3]?
A: The value was “some necrosis”.

Q: And the half-life in vivo [4]?
A: Its half-life in vivo is “approximately two hours”.

Q: Which results are given for `OO` [H2O2]?
A: cells with PS at the cell surface ([5]; H2O2 as low as 20 μM): about 50%; cells with PS translocation ([5]; H2O2 higher than 100 μM, 1 hour): ~90%; cell viability ([5]; low levels of H2O2 (lower than 100 μM), identical to untreated cells): 95%

Q: For `NC(=O)c1nnn(Cc2cc(Cl)c(C(=O)c3ccc(Cl)cc3)c(Cl)c2)c1N` [CAI, carboxyamidotriazole], which “disease stabilization, share of cancer patients” value [6] is on record?
A: Its value is 49%.

Q: For TNFα, which “tissue factor expression on the surface of HUVEC” value (HUVEC cells) is on record?
A: The value was “upregulated tissue factor expression”.

Q: What about the “TNFα at which an increase over negative control was detected in the coagulation assay” value (Mouse endothelial cells) of the same molecule?
A: The value was 0,16 U/ml.

Q: What about the “dose for procoagulant effect, fold lower than for VCAM-1 increase” value (Mouse endothelial cells) of the same molecule?
A: Its value is 125 fold.

Q: What about the “TNFα required for measurable increase of VCAM-1 expression” value (VCAM-1) of the same molecule?
A: Its value is 20 U/ml.

Q: For TEC-11 anti-human endoglin antibody, which % of blood vessels in the tumor periphery to which the antibody localized (human endoglin (human)) is on record?
A: The % of blood vessels in the tumor periphery to which the antibody localized was 84%.

Q: What about the % of blood vessels throughout the tumor to which the antibody localized (human endoglin (human)) of the same molecule?
A: Its % of blood vessels throughout the tumor to which the antibody localized is 46%.

Q: Which “average tumor volume, day 14” value [7] does the source give for `COc1cc([C@@H]2c3cc4c(cc3[C@@H](O[C@@H]3O[C@@H]5CO[C@@H](C)O[C@H]5[C@H](O)[C@H]3O)[C@H]3COC(=O)[C@H]23)OCO4)cc(OC)c1O` [etoposide] here?
A: Its value is 1400 mm^3.

B1: Annexin V: protein that binds to PS with high affinity (protein, UniProt P08758 2-320, looked up)
Annexin A5: AQVLRGTVTDFPGFDERADAETLRKAMKGLGTDEESILTLLTSRSNAQRQEISAAFKTLFGRDLLDDLKSELTGKFEKLIVALMKPSRLYDAYELKHALKGAGTNEKVLTEIIASRTPEELRAIKQVYEEEYGSSLEDDVVGDTSGYYQRMLVVLLQANRDPDAGIDEAQVEQDAQALFQAGELKWGTDEEKFITIFGTRSVSHLRKVFDKYMTISGFQIEETIDRETSGNLEQLLLAVVKSIRSIPAYLAETLYYAMKGAGTDDHTLIRVMVSRSEIDLFNIRKEFRKNFATSLYSMIKGDTSGDYKKALLLLCGEDD
Q: With B1 as the molecule, how does the “coaguligand-induced thrombosis and changes in tumor cell morphology after Annexin V pre-treatment” value ([8]; 100 μg Annexin V 2 hours before 40 μg anti-VCAM-1•tTF) read?
A: Its value is “completely abolished”.

Q: What about the tumor morphology ([8]; 100 μg Annexin V alone) of the same molecule?
A: Its tumor morphology is “did not alter tumor morphology”.

Q: And the “inhibition of factor Xa production” value [9]?
A: The value was 58%.

B2: tTF219 (G164A): tTF219 with amino acid 164 (Gly) replaced by Ala (protein)
chain: GSGTTNTVAAYNLTWKSTNFKTILEWEPKPVNQVYTVQISTKSGDWKSKCFYTTDTECDLTDEIVKDVKQTYLARVFSYPAGNVESTGSAGEPLYENSPEFTPYLETNLGQPTIQSFEQVGTKVNVTVEDERTLVRRNNTFLSLRDVFGKDLIYTLYYWKSSSSAKKTAKTNTNEFLIDVDKGENYCFSVQAVIPSRTVNRKSTDSPVECMGQEKGEFRE
Q: With B2 as the molecule, how does the “toxicity when given separately” value [2] read?
A: Its value is “practically non-toxic to mice”.

Q: And the “average area of necrosis in tumor sections” value [3]?
A: Its value is “some necrosis”.

B3: tTF219 (W158R) (protein)
chain: B2 chain with W159R, A165G
Q: Which “toxicity when given separately” value [2] does the source give for B3 here?
A: Its value is “practically non-toxic to mice”.

B4: 2C3 anti-VEGF antibody (antibody, V domains shown)
VH: QVQLQESGPELVKPGASVKMSCKASGYTFTSYVFHWVKQKPGQGLEWIGYINPYNDVTKYNEKFKGKATLTSDKSSSTAYMELSSLTSEDSAVYYCASYYGSSYGYYAMDDWGQGTTVTVSS
VL: DIQLTQSPASLSVSAGEKVTMSCKSSQSLLNSGNQKNYLAWYQQKPGQPPKLLIHGASTRESGVPDRFTGSGSGTDFTLTISSVQAEDLAVYYCQNDYSYPLTFGAGTKLELKR
Q: With B4 as the molecule, how does the “% of VEGF bound to VEGFR1-coated wells relative to the amount bound without 2C3” value [10] read?
A: The value was 105%.

Q: And the “% of VEGF bound to VEGFR1-coated wells relative to the amount bound without 2C3” value [11]?
A: Its value is 92%.
